“And” between values parts separate entries of the source, which are not always exact repeats. Equal entries are not always repeated. Where two headings read alike, the source gives them in different places.
Key:
[1] = Tissue distribution after single oral SZ-A (20 mg/kg) in ICR mice; assay type: in vivo
Procedure: (§1) Twenty SD rats were randomly classified into four groups corresponding to four-time points (5 and 30 min, 4 and 12 h) (n = 20; 5 animals per time point) that received SZ-A solution (40 mg/kg) via oral administration. After the completion of dose administration, plasma and tissue samples (derived from the heart, liver, spleen, lung, kidney, aortic blood vessels, brown adipose tissue, subcutaneous adipose tissue, abdominal adipose tissue, muscle (thigh skeletal muscle), pancreas, and brain) were collected at predetermined time points. Twenty-eight ICR mice were randomly classified into four groups (n = 7 per group) corresponding to four-time points (5 and 30 min, 4 and 12 h) that received SZ-A solution (20 mg/kg) via oral administration. After the completion of dose administration, tissue samples (derived from the heart, liver, spleen, lung, kidney, aortic blood vessels, brown adipose tissue, abdominal adipose tissue, muscle (thigh skeletal muscle), pancreas, and brain) were collected at predetermined time points.
(§2) Collected tissue samples were washed with normal saline. The surface moisture was removed by blotting gently with filter paper, and the weight was recorded. After adding an appropriate amount of normal saline, these tissue samples were ground into homogenates using a cryogenic grinder (JX-CL, Shanghai Jingxin, Shanghai, China). The obtained homogenates were stored at −80°C until LC-MS/MS analysis.

[2] = parameters: method as in Yang et al., 2017; settings: ref Yang et al., 2017, cited from earlier work
[3] = system: CYP450s in RLMs (other isoenzymes); assay: Effect on activity of rat liver microsome isoenzymes other than CYP2C11; settings: SZ-A 8.899 μg/mL, DNJ 20 μM, FA 5 μM, DAB 8 μM
[4] = system: major CYP450s in HLMs; assay: Effect on activity of the major CYP450s in human liver microsomes (all isoforms together); settings: final concentration SZ-A 8.899 μg/mL (equivalent to DNJ 20 μM), FA 5 μM, DAB 8 μM
[5] = Tissue distribution after single oral SZ-A (40 mg/kg) in SD rats, plasma and 12 tissues; assay type: in vivo; settings: for half-life / AUC(0-t) / Tmax / Cmax: rat; for AUC(0-t): n=5, read-out: AUC(0-t)
Procedure: as §1, §2
Primary pharmacokinetic parameters, including Cmax, Tmax, area under the plasma concentration-time curve (AUC), t1/2, clearance rate, and the apparent volume of distribution, were calculated using DAS 3.2.8 (Bio Guider Co., Shanghai, China).

[6] = Sprague-Dawley, muscle (thigh skeletal muscle), Muscle, n=5
[7] = Subcutaneous adipose tissue, n=5

Structure (SMILES): OC[C@H]1NCC[C@@H](O)[C@@H]1O [FA, fagomine]
- tissues with the highest concentrations [1]: kidney, followed by the liver
- form excreted ([2]; material conservation within 24 h after oral administration of SZ-A): mainly excreted in their original forms
- oral absolute bioavailability ([2]; rats, after oral administration of SZ-A): 77.50% and > 70%
- pharmacokinetic profile versus dose ([2]; rats, oral SZ-A 20–500 mg/kg): non-linear pharmacokinetics
- effect on other isoenzymes in RLMs [3]: no obvious effect
- effect on the major CYP450s in HLMs, either inhibition or activation [4]: no significant effect
- time of maximum drug concentration in heart, muscle, lung, and aortic vessels [5]: 5 min
- tissues with the highest concentrations [5]: kidney, followed by the liver, aortic vessels, and brown adipose tissue
- CLz ([5]; Plasma, n=5): 65.8 ± 15 mL/min/kg
- Vz ([5]; Plasma, n=5): 4.39 ± 2.04 L/kg
- half-life ([5]; Sprague-Dawley, Brown adipose tissue, n=5): 139 ± 139 min
- AUC(0-t) ([5]; Sprague-Dawley, Brown adipose tissue): 1480 ± 380 ng·h/mL
- Tmax ([5]; Sprague-Dawley, Brown adipose tissue, n=5, read-out: Tmax): 19.8 ± 13.8 min
- Cmax ([5]; Sprague-Dawley, Kidney, n=5): 8970 ± 1680 ng/mL
- half-life ([5]; Sprague-Dawley, Kidney, n=5): 139 ± 72.6 min
- AUC(0-t) ([5]; Sprague-Dawley, Kidney): 27000 ± 8880 ng·h/mL
- Tmax ([5]; Sprague-Dawley, Kidney, n=5, read-out: Tmax): 25.2 ± 11.4 min
- Cmax ([5]; Sprague-Dawley, Liver, n=5): 1130 ± 187 ng/mL
- half-life ([5]; Sprague-Dawley, Liver, n=5): 36 ± 0.6 min
- AUC(0-t) ([5]; Sprague-Dawley, Liver): 2990 ± 1030 ng·h/mL
- Tmax ([5]; Sprague-Dawley, Liver, n=5, read-out: Tmax): 25.2 ± 11.4 min
- Cmax ([5]; Sprague-Dawley, Lung, n=5): 248 ± 5.46 ng/mL
- half-life ([5]; Sprague-Dawley, Lung, n=5): 31.2 ± 15.6 min
- Tmax ([5]; Sprague-Dawley, Lung, n=5, read-out: Tmax): 13.2 ± 14.4 min
- Cmax ([5]; Sprague-Dawley, Pancreas, n=5): 96.9 ± 13.9 ng/mL
- half-life ([5]; Sprague-Dawley, Pancreas, n=5): 42 ± 2.4 min
- AUC(0-t) ([5]; Sprague-Dawley, Pancreas): 705 ± 118 ng·h/mL
- Tmax ([5]; Sprague-Dawley, Pancreas, n=5, read-out: Tmax): 114 ± 115 min
- Cmax ([5]; Sprague-Dawley, Plasma, n=5): 692 ± 135 ng/mL
- half-life ([5]; Sprague-Dawley, Plasma, n=5): 46.8 ± 22.8 min
- AUC(0-t) ([5]; Sprague-Dawley, Plasma): 1800 ± 421 ng·h/mL
- Tmax ([5]; Sprague-Dawley, Plasma, n=5, read-out: Tmax): 25.2 ± 11.4 min
- Cmax [5, 6]: 175 ± 91.2 ng/mL
- half-life [5, 6]: 40.8 ± 2.4 min
- AUC(0-t) ([5]; Sprague-Dawley, muscle (thigh skeletal muscle), Muscle): 577 ± 298 ng·h/mL
- Tmax ([5]; Sprague-Dawley, muscle (thigh skeletal muscle), Muscle, n=5, read-out: Tmax): 19.8 ± 13.8 min
- Cmax ([5]; Abdominal adipose tissue, n=5): 221 ± 137 ng/mL
- half-life ([5]; Abdominal adipose tissue, n=5): 38.4 ± 15 min
- AUC(0-t) ([5]; Abdominal adipose tissue): 409 ± 127 ng·h/mL
- Tmax ([5]; Abdominal adipose tissue, n=5, read-out: Tmax): 25.2 ± 11.4 min
- Cmax ([5]; Aortic blood vessels, n=5): 1090 ± 760 ng/mL
- half-life ([5]; Aortic blood vessels, n=5): 27 ± 14.4 min
- AUC(0-t) ([5]; Aortic blood vessels): 1060 ± 367 ng·h/mL
- Tmax ([5]; Aortic blood vessels, n=5, read-out: Tmax): 4.8 min
- Cmax ([5]; Brown adipose tissue, n=5): 463 ± 161 ng/mL
- Cmax ([5]; Heart, n=5): 128 ± 33.6 ng/mL
- half-life ([5]; Heart, n=5): 42.6 ± 0.6 min
- AUC(0-t) ([5]; Heart): 382 ± 246 ng·h/mL
- Tmax ([5]; Heart, n=5, read-out: Tmax): 10.2 ± 11.4 min
- AUC(0-t) ([5]; Lung): 367 ± 136 ng·h/mL
- Cmax ([5]; Spleen, n=5): 198 ± 77.7 ng/mL
- half-life ([5]; Spleen, n=5): 42 ± 4.8 min
- AUC(0-t) ([5]; Spleen): 491 ± 264 ng·h/mL
- Tmax ([5]; Spleen, n=5, read-out: Tmax): 30 min
- Cmax [5, 7]: 102 ± 52 ng/mL
- half-life [5, 7]: 44.4 ± 1.8 min
- AUC(0-t) ([5]; Subcutaneous adipose tissue): 212 ± 95 ng·h/mL
- Tmax ([5]; Subcutaneous adipose tissue, n=5, read-out: Tmax): 15 ± 13.8 min
- Tmax ([5]; other tissues (not named), tissues not named separately for that alkaloid, read-out: time of peak concentration in other tissues (converted)): 30 min
- accumulation in tissues ([5]; up to 12 h): no long-term accumulation

Source: publication PMC9981942, “Pharmacokinetics and tissue distribution of Ramulus Mori (Sangzhi) alkaloids in rats and its effects on liver enzyme activity” (Frontiers in Pharmacology, 2023)
